In patent US11672466B2, “System and method for modeling brain dynamics in normal and diseased states” (THE REGENTS OF THE UNIVERSITY OF CALIFORNIA, priority 2013, dated 2023):

How the values were obtained:
[1] = test system: PTZ seizures; details: prior studies; cited from earlier work
[2] = test system: APPL/S mice; test: choline acetyltransferase immunostaining of cholinergic neurites in basal forebrain; format: in vivo, mouse; details: basal forebrain sections
Method: (§1) FIG. 30A is a photomicrograph of APP immunolabeling for dystrophic neurites (left) and Thioflavin S staining for amyloid plaques (right) in hippocampus of APPL/S mice given vehicle or LM11A-31 as indicated. Scale bars=25 μm. FIG. 30B is a photomicrograph of choline acetyltransferase-immunostained basal forebrain sections. Treatment of APPL/S mice with LM11A-31 was associated with increased length, volume, and branching of cholinergic neurites. […] Statistical significance was determined using ANOVA and post-hoc Student-Neuman-Keuls testing.

[3] = test system: APPL/S mice; details: APPL/S transgenic AD mouse model; cited from earlier work
[4] = test system: APP/PS1 mice; test: LTP / synaptic function in hippocampal slice preparations from AD model mice; design: species or system mouse; details: hippocampus
[5] = test system: APP/PS1 mice; details: slices derived from AD model mice; cited from earlier work
[6] = test system: APPL/S mice; details: basal forebrain and hippocampus; cited from earlier work
[7] = test system: APPL/S mice; test: novel object recognition; format: in vivo, mouse
[8] = after oral administration; cited from earlier work
[9] = test system: APPL/S mice; test: APP immunolabeling for dystrophic neurites, Thioflavin S staining for amyloid plaques in hippocampus; format: in vivo; details: transgenic mouse model of AD, APPL/S mice given vehicle or LM11A-31
Method: as §1

[10] = test system: APPL/S transgenic AD mouse model; details: cited from earlier work
[11] = test system: amyloid-P-induced neurodegenerative mechanisms; details: previous in vitro studies; cited from earlier work
[12] = test system: APPL/S mice; details: APPL/S transgenic AD mouse model; cited from earlier work; remark: listed apart in the source
[13] = test system: MES, PTZ and amygdala-kindling seizure models; details: systemic PTZ; cited from earlier work
[14] = test system: partial, tonic-clonic and generalized seizures; details: clinically; cited from earlier work

Question: Which “effect on the beneficial effect of ANT electrical stimulation to raise threshold for PTZ seizures” value [1] does the source give for `CC[C@@H](CO)NC(=O)[C@@H]1C=C2c3cccc4c3c(cn4C)C[C@H]2N(C)C1` [methylsergide] here?
Answer: largely blocked

Question: Which “length, volume, and branching of cholinergic neurites” value [2] does the source give for `CC[C@H](C)[C@H](N)C(=O)NCCN1CCOCC1` [LM11A-31] here?
Answer: increased

Question: What about the amyloid levels [3] of the same compound?
Answer: without affecting

Question: What about the LTP [4] of the same compound?
Answer: normalizes

Question: And the “synaptic impairment in hippocampal slice preparations” value [5]?
Answer: reversed

Question: What about the cholinergic neuritic dystrophy [6] of the same compound?
Answer: prevented

Question: What about the object recognition deficits [7] of the same compound?
Answer: prevented

Question: What about the brain concentrations [8] of the same compound?
Answer: reach brain concentrations known to provide neuroprotection in vitro

Question: And the “crossing of the blood brain barrier” value [8]?
Answer: cross the blood brain barrier

Question: And the “dystrophic neurites and amyloid plaque formation in the hippocampus” value [9]?
Answer: rescued significantly

Question: And the “deficits in Y-maze performance” value [10]?
Answer: prevented deficits

Question: And the amyloid-P-induced neurodegenerative mechanisms [11]?
Answer: prevented

Question: And the “deficits in novel object recognition” value [12]?
Answer: prevented deficits

Question: For `O=C1Nc2ccc(Cl)cc2C(c2ccccc2Cl)=NC1O` (stereo not drawn) [lorazepam], which “efficacy in conventional epilepsy models” value [13] is on record?
Answer: efficacy in all three conventional models

Question: And the “clinical efficacy by seizure type” value [14]?
Answer: efficacy in partial and generalized tonic-clonic seizures

Question: For `O=C1NC(=O)C(c2ccccc2)(c2ccccc2)N1` [PHT, phenytoin], which “clinical efficacy by seizure type” value [14] is on record?
Answer: efficacy in partial and generalized tonic-clonic seizures

Question: Which results are given for `CC[C@@H](C(N)=O)N1CCCC1=O` [LEV, levetiracetam]?
Answer: efficacy in conventional epilepsy models [13]: efficacy only in amygdala-kindling; clinical efficacy by seizure type [14]: efficacy for partial, tonic-clonic and non-convulsive generalized seizures
